Literature values as cited in patent publication US7393954B2 (Reliable Biopharmaceutical Corporation, priority 2002, dated 2008).

Key:
[1] = test system: chronic lymphocytic leukemia; conditions: result in words
hairy cell leukemia = conditions: result in words

**Q.** With `OC[C@H]1O[C@@H](n2cnc3c2N=CNC[C@H]3O)C[C@@H]1O` [Pentostatin] as the compound, how does the “efficacy against chronic lymphocytic leukemia” value [1] read?
**A.** effective

**Q.** What about the “efficacy in treatment of interferon-refractory hairy cell leukemia” value (hairy cell leukemia; interferon-refractory, approved agent) of the same compound?
**A.** highly effective

**Q.** What about the “efficacy against hairy cell leukemia” value (hairy cell leukemia) of the same compound?
**A.** effective
